From patent publication US9931335B2, “Desethylhydroxychloroquine for the treatment of diseases associated with inflammation” (The Board of Trustees of the Leland Stanford Junior …, priority 2013, dated 2018)
Entries after “also recorded” stand apart in the source; their conditions may differ.

What was measured:
human OA = conditions: cited from earlier work
retinal toxicity [1] = conditions: cited from earlier work
[2] = tested on: inflammatory cytokines in mouse OA synovium; assay: Multiplex cytokine assay of OA synovial tissue from treated DMM mice; type: in vivo; conditions: for levels of inflammatory cytokines in OA synovium vs vehicle control: heat map, multiplex bead assay
Description: From a parallel experiment to the mouse OA experiment presented in Example 12 and FIG. 19, following in vivo dosing and at the time of termination OA synovial tissue was microdissected, homogenized to form a lysate, centrifuged, and supernatants assayed for levels of inflammatory cytokines using a multiplex bead-based cytokine assay (BioRad Laboratories, Hercules, Calif.).

[3] = LC/MS tissue levels of HCQ and DHCQ in plasma, retina and synovium of dosed mice; type: in vivo, mouse; conditions: for accumulation in the retina: 100 mg/kg/day oral gavage, LC/MS
Description: The major risk to long term administration of hydroxychloroquine is retinal accumulation and subsequent ocular toxicity (Terahi et al, 2008. Semin Opthal. (3):201-208. PMID). We sought to evaluate the retinal deposition of HCQ and DHCQ. To do so, we performed mass spectrometric analysis of drug and metabolite content in retina, in operated side and non-operated side synovial tissue, and in plasma derived from mice treated with either HCQ or DHCQ. […] The indicated statistical comparisons between the levels measured in the indicated tissue from each group were compared by two-tailed T test (*P<0.05, **P<0.01, ***P<0.001).
Mice, dosing with HCQ and DHCQ, isolation of specific tissues, and mass spectrometry measurement of HCQ and DHCQ levels in tissue samples. C57BL6 (B6) mice (n=5 per group) were treated with HCQ (100 mg/kg/day) or DHCQ (100 mg/kg/day) by oral gavage for 3 months. At experimental termination (3 months) mice were sacrificed and eyes removed under dissecting microscope. Curved microdisecting scissors was used to cut along the cornea and sclera, remove and discard the lens and visceral leaving the neural retina with eye shell to be placed in PBS and homogenized followed by centrifugation. Synovium was microdissected from the operated knee or the contralateral non-operated knee, normalized by weight of tissue, and placed in HPLC grade water before being homogenized and centrifuged. Plasma was obtained by tail bleeding. Plasma and tissue samples were precipitated with acetonitrile and levels of HCQ, DHCQ, BDCQ were evaluated by liquid chromatography/mass spectrometry (LC/MS) at Climax Laboratories, Inc. (San Jose, Calif.). The LC/MS analysis was conducted by using Shimazu 10A HPLC system (Shimadzu Scientific Instruments, Inc., Pleasanton, Calif.) with ACE C18, 50×2.1 HPLC column and ABSciex API-4000 Mass Spectrometer (ABSciex Corp. Foster City, Calif.) with Electrospray Ionization (ESI) and negative Multiple Reaction Monitoring (MRM) Scan. A gradient elution was used in separating the test compound with a mobile phase A (0.1% Formic Acid in 5 mM of NH4AC) and B (0.1% Formic acid in acetonitrile).

[4] = tested on: established EAE in SJL mice; assay: EAE mouse model for MS, treatment of established disease; type: in vivo; conditions: for EAE clinical score (severity of established EAE): 100 mg/kg/day oral gavage from day 14, 50 mg/kg/day 8 days later; for EAE clinical score (severity of established EAE) / Inflammatory Foci Score in the parenchyma / Inflammatory Foci Score, total score / Inflammatory Foci Score in the meninges: vs vehicle; for Inflammatory Foci Score in the parenchyma / Inflammatory Foci Score, total score / Inflammatory Foci Score in the meninges: brain histology at termination; for Inflammatory Foci Score in the meninges: P<0.05 two-tailed T test
Description: Experimental autoimmune encephalomyelitis (EAE), a mouse model for MS, was induced in SJL mice (n=10 per group) by immunization with proteolipid protein peptide 139-151 (PLP 139-151) in CFA. […] At the termination of the experiment, mice were sacrificed, and the brains harvested, fixed, sections histologically scored by a blinded examiner for the number of inflammatory foci in the meninges and parenchyma using an established “Inflammatory Foci Score” (Chang et al, Recovery from EAE is associated with decreased survival of encephalitogenic T cells in the CNS of B7-1/B7-2-deficient mice. European J. Immunology, 2003, 33(7):2022-32).

[5] = tested on: collagen-induced arthritis (CIA) in DBA/1 mice; assay: Collagen-induced arthritis (CIA) mouse model for RA, treatment from first immunization; type: in vivo; conditions: 50 mg/kg/day oral gavage, 100 mg/kg/day loading day 14-21; vs vehicle, Mann Whitney U test P<0.05
retinal toxicity [6] = assay: Estimated retinal toxicity of long-term DHCQ therapy in humans; type: in vivo, human
Description: The estimated rate of retinal toxicity for long-term treatment with DHCQ is less than 50% of the currently reported rate for HCQ when used at a similar effective cumulative dose and over a similar time period. More specifically, as compared to the rates of retinal toxicity described by Marmor et al. for treatment with HCQ (Ophthalmology. 2011 February; 118(2):415-22), given a similar level of therapeutic activity and time period of dosing for both HCQ and DHCQ, DHCQ is estimated to provide less than 50% of retinal toxicity as compared to that with HCQ dosing. Thus, in patient populations analogous to that described by the […] and Marmor et al (Ophthalmology. 2011 February; 118(2):415-22) where the retinal toxicity rate approach 1% after 5 years, DHCQ therapy is estimated to reduce the retinal toxicity to less that 0.5% of treated individuals. Further, given conventional assumptions that retinal screening is justified as rates of toxicity approach 1%, the reduced cumulative rates of retinal toxicity associated with DHCQ therapy will substantially reduce the need for retinal toxicity screening to a single screening at 5 and 10 years, or entirely negate the need for screening.

Structure (SMILES) | levels of inflammatory cytokines in OA synovium vs vehicle control [2] | accumulation in the retina ([3]; 3 months) | level in surgical joint synovial tissue relative to retina ([3]; 100 mg/kg/day, 3 months) | EAE clinical score (severity of established EAE) [4] | Inflammatory Foci Score in the parenchyma [4] | Inflammatory Foci Score, total score [4] | Inflammatory Foci Score in the meninges [4] | arthritis score (development of disease and disease activity) [5] | other results
CCN(CCO)CCCC(C)Nc1ccnc2cc(Cl)ccc12 (centres unmarked) [HCQ, hydroxychloroquine] | lower | accumulated a high levels in the retina | accumulated at high levels in the retina relative to the low levels measured in the surgical joint synovial tissue | reducing the severity of EAE | trends towards reductions | trends towards reductions | reduced | statistically reduced development of disease and reduced disease activity; also recorded: statistically lower | therapeutic benefit in erosive OA (human OA; case series): trends towards therapeutic benefit; disease-modifying or pain-reducing activity in non-erosive OA (human OA; in vivo): has not demonstrated disease-modifying or pain-reducing activity; prevalence of retinal toxicity (retinal toxicity [1]; conventional doses, 400 mg/day common): 6.8 users per 1,000; retinal toxicity after 5-7 years of use (retinal toxicity [1]; in vivo): ~1%; risk of retinal toxicity after 7 years of usage or 1000 grams of total exposure (retinal toxicity [1]; in vivo): 5 times higher; risk of retinal toxicity after about 7 years of treatment (retinal toxicity [1]; in vivo): approximately 1%; incidence of retinal toxicity after 5 years (retinal toxicity [1]; treated humans, conventional doses): approximately 1%; Kp at 3 months ([3]; C57BL6, mouse, retina/plasma, oral, HCQ in HCQ dosed mice, 100 mg/kg/day, 3 months, read-out: level in retina/level in plasma): ~8.5
CC(CCCNCCO)Nc1ccnc2cc(Cl)ccc12 (centres unmarked) [DHCQ, desethylhydroxychloroquine] | lower | only low-level accumulation in the retina | accumulated at higher levels in the surgical joint synovial tissue relative to the low levels measured in the retina | reducing the severity of EAE | statistically reduced | statistically reduced | statistically reduced | statistically reduced development of disease and reduced disease activity; also recorded: statistically lower | estimated retinal toxicity rate in treated individuals after 5 years (retinal toxicity [6]; population where HCQ rate approaches 1% after 5 years): < 0.5%; estimated rate of retinal toxicity, as share of the reported rate for HCQ (retinal toxicity [6]; similar effective cumulative dose and time period): less than 50%; cytokines, DHCQ monotherapy vs vehicle control, atorvastatin alone, HCQ+atorvastatin and HCQ alone (SAM) ([2]; false discovery rate <0.1%): reduced the levels of multiple inflammatory cytokines including IL-1b, MCP-1, IFNγ, TNF-alpha IL12p40, and IL-12p70; level in retina relative to plasma ([3]; DHCQ in both HCQ and DHCQ dosed mice): much lower levels in plasma as compared to the retina; therapeutic activity in established EAE compared to HCQ ([4]; mouse, in vivo): more robust therapeutic activity than treatment with HCQ
